# Experimental data: the NIST ThermoML archive (doi:10.1016/j.fluid.2004.09.013)
# Numbers after ± are expanded uncertainties.
# Conditions: for mass density: Fluid (supercritical or subcritical phases), Vibrating tube method; for vapor or sublimation pressure: Liquid
structure (smiles),measurement,setting,value
C=CCC [1-butene],mass density,"333.22 K, 1276 kPa",542.42 ± 1.1 kg/m3
same,mass density,"333.22 K, 4994 kPa",552.72 ± 1.1 kg/m3
same,mass density,"333.22 K, 10001 kPa",564.22 ± 1.2 kg/m3
same,mass density,"333.22 K, 14993 kPa",573.92 ± 1.2 kg/m3
same,mass density,"333.22 K, 20000 kPa",582.4 ± 1.3 kg/m3
same,mass density,"333.22 K, 24986 kPa",589.92 ± 1.3 kg/m3
same,mass density,"333.22 K, 29987 kPa",596.76 ± 1.3 kg/m3
same,mass density,"333.22 K, 35007 kPa",603.04 ± 1.4 kg/m3
same,mass density,"333.22 K, 40005 kPa",608.82 ± 1.4 kg/m3
same,vapor or sublimation pressure,337.04 K,833.9 ± 2.9 kPa
same,vapor or sublimation pressure,337.68 K,845.55 ± 2.9 kPa
same,mass density,"338.22 K, 1372 kPa",535.11 ± 1.1 kg/m3
same,mass density,"338.22 K, 4996 kPa",545.96 ± 1.1 kg/m3
same,mass density,"338.22 K, 9985 kPa",558.18 ± 1.2 kg/m3
same,mass density,"338.22 K, 14991 kPa",568.42 ± 1.2 kg/m3
same,mass density,"338.22 K, 19988 kPa",577.27 ± 1.2 kg/m3
same,mass density,"338.22 K, 25002 kPa",585.14 ± 1.3 kg/m3
same,mass density,"338.22 K, 29995 kPa",592.2 ± 1.3 kg/m3
same,mass density,"338.22 K, 34993 kPa",598.67 ± 1.4 kg/m3
same,mass density,"338.22 K, 39988 kPa",604.63 ± 1.4 kg/m3
same,mass density,"343.22 K, 1477 kPa",527.59 ± 1.1 kg/m3
same,mass density,"343.22 K, 4989 kPa",538.99 ± 1.1 kg/m3
same,mass density,"343.22 K, 9987 kPa",552.06 ± 1.2 kg/m3
same,mass density,"343.22 K, 14985 kPa",562.84 ± 1.2 kg/m3
same,mass density,"343.22 K, 19995 kPa",572.12 ± 1.2 kg/m3
same,mass density,"343.22 K, 24993 kPa",580.29 ± 1.3 kg/m3
same,mass density,"343.22 K, 29995 kPa",587.63 ± 1.3 kg/m3
same,mass density,"343.22 K, 34993 kPa",594.3 ± 1.4 kg/m3
same,mass density,"343.22 K, 39996 kPa",600.44 ± 1.4 kg/m3
same,vapor or sublimation pressure,345.48 K,1009.7 ± 3.5 kPa
same,mass density,"348.22 K, 9989 kPa",545.85 ± 1.1 kg/m3
same,mass density,"348.22 K, 24986 kPa",575.42 ± 1.3 kg/m3
same,mass density,"348.23 K, 1592 kPa",519.85 ± 1.1 kg/m3
same,mass density,"348.23 K, 4984 kPa",531.84 ± 1.1 kg/m3
same,mass density,"348.23 K, 14988 kPa",557.22 ± 1.2 kg/m3
same,mass density,"348.23 K, 20000 kPa",566.94 ± 1.2 kg/m3
same,mass density,"348.23 K, 29995 kPa",583.02 ± 1.3 kg/m3
same,mass density,"348.23 K, 35000 kPa",589.94 ± 1.4 kg/m3
same,mass density,"348.23 K, 39996 kPa",596.25 ± 1.4 kg/m3
same,mass density,"353.23 K, 1715 kPa",511.85 ± 1.1 kg/m3
same,mass density,"353.23 K, 4999 kPa",524.53 ± 1.1 kg/m3
same,mass density,"353.23 K, 9991 kPa",539.5 ± 1.1 kg/m3
same,mass density,"353.23 K, 14992 kPa",551.53 ± 1.2 kg/m3
same,mass density,"353.23 K, 19991 kPa",561.68 ± 1.2 kg/m3
same,mass density,"353.23 K, 24984 kPa",570.52 ± 1.3 kg/m3
same,mass density,"353.23 K, 30003 kPa",578.41 ± 1.3 kg/m3
same,mass density,"353.23 K, 34996 kPa",585.54 ± 1.4 kg/m3
same,mass density,"353.23 K, 40004 kPa",592.05 ± 1.4 kg/m3
same,vapor or sublimation pressure,353.71 K,1207.9 ± 4.2 kPa
same,mass density,"358.23 K, 1846 kPa",503.54 ± 1 kg/m3
same,mass density,"358.23 K, 4995 kPa",516.91 ± 1.1 kg/m3
same,mass density,"358.23 K, 9989 kPa",533.03 ± 1.1 kg/m3
same,mass density,"358.23 K, 14984 kPa",545.76 ± 1.2 kg/m3
same,mass density,"358.23 K, 19997 kPa",556.43 ± 1.2 kg/m3
same,mass density,"358.23 K, 25002 kPa",565.63 ± 1.3 kg/m3
same,mass density,"358.23 K, 30007 kPa",573.81 ± 1.3 kg/m3
same,mass density,"358.23 K, 34991 kPa",581.14 ± 1.4 kg/m3
same,mass density,"358.23 K, 39997 kPa",587.85 ± 1.4 kg/m3
same,vapor or sublimation pressure,358.53 K,1337.5 ± 4.6 kPa
same,vapor or sublimation pressure,361.4 K,1416.5 ± 4.9 kPa
same,mass density,"363.23 K, 1991 kPa",494.93 ± 1 kg/m3
same,mass density,"363.23 K, 4996 kPa",509.02 ± 1.1 kg/m3
same,mass density,"363.23 K, 9987 kPa",526.43 ± 1.1 kg/m3
same,mass density,"363.23 K, 14995 kPa",539.91 ± 1.2 kg/m3
same,mass density,"363.23 K, 19993 kPa",551.05 ± 1.2 kg/m3
same,mass density,"363.23 K, 24987 kPa",560.63 ± 1.3 kg/m3
same,mass density,"363.23 K, 29994 kPa",569.1 ± 1.3 kg/m3
same,mass density,"363.23 K, 35013 kPa",576.7 ± 1.4 kg/m3
same,mass density,"363.23 K, 39993 kPa",583.59 ± 1.4 kg/m3
same,vapor or sublimation pressure,366.99 K,1590.4 ± 5.5 kPa
same,vapor or sublimation pressure,367.1 K,1594.8 ± 5.5 kPa
same,mass density,"368.23 K, 2145 kPa",485.95 ± 1 kg/m3
same,mass density,"368.23 K, 4994 kPa",500.81 ± 1.1 kg/m3
same,mass density,"368.23 K, 10001 kPa",519.71 ± 1.1 kg/m3
same,mass density,"368.23 K, 15000 kPa",534.01 ± 1.2 kg/m3
same,mass density,"368.23 K, 19992 kPa",545.69 ± 1.2 kg/m3
same,mass density,"368.23 K, 24989 kPa",555.66 ± 1.2 kg/m3
same,mass density,"368.23 K, 29994 kPa",564.43 ± 1.3 kg/m3
same,mass density,"368.23 K, 34993 kPa",572.27 ± 1.4 kg/m3
same,mass density,"368.23 K, 39995 kPa",579.38 ± 1.4 kg/m3
same,mass density,"373.23 K, 2313 kPa",476.57 ± 0.99 kg/m3
same,mass density,"373.23 K, 10000 kPa",512.83 ± 1.1 kg/m3
same,mass density,"373.23 K, 19991 kPa",540.27 ± 1.2 kg/m3
same,mass density,"373.23 K, 24984 kPa",550.66 ± 1.2 kg/m3
same,mass density,"373.23 K, 30002 kPa",559.76 ± 1.3 kg/m3
same,mass density,"373.23 K, 35005 kPa",567.88 ± 1.3 kg/m3
same,mass density,"373.23 K, 39997 kPa",575.19 ± 1.4 kg/m3
same,mass density,"373.24 K, 5000 kPa",492.29 ± 1 kg/m3
same,mass density,"373.24 K, 15001 kPa",528.02 ± 1.1 kg/m3
same,mass density,"378.23 K, 4992 kPa",483.29 ± 1 kg/m3
same,mass density,"378.23 K, 40004 kPa",571.03 ± 1.4 kg/m3
same,mass density,"378.24 K, 2492 kPa",466.71 ± 0.98 kg/m3
same,mass density,"378.24 K, 9989 kPa",505.75 ± 1.1 kg/m3
same,mass density,"378.24 K, 14998 kPa",521.94 ± 1.1 kg/m3
same,mass density,"378.24 K, 20001 kPa",534.83 ± 1.2 kg/m3
same,mass density,"378.24 K, 24999 kPa",545.69 ± 1.2 kg/m3
same,mass density,"378.24 K, 30000 kPa",555.11 ± 1.3 kg/m3
same,mass density,"378.24 K, 35012 kPa",563.49 ± 1.3 kg/m3
same,vapor or sublimation pressure,379.44 K,2014.2 ± 6.7 kPa
same,mass density,"383.24 K, 2679 kPa",456.23 ± 0.96 kg/m3
same,mass density,"383.24 K, 5001 kPa",473.89 ± 1 kg/m3
same,mass density,"383.24 K, 9994 kPa",498.55 ± 1.1 kg/m3
same,mass density,"383.24 K, 14998 kPa",515.79 ± 1.1 kg/m3
same,mass density,"383.24 K, 19999 kPa",529.35 ± 1.2 kg/m3
same,mass density,"383.24 K, 24986 kPa",540.63 ± 1.2 kg/m3
same,mass density,"383.24 K, 29986 kPa",550.4 ± 1.3 kg/m3
same,mass density,"383.24 K, 34993 kPa",559.06 ± 1.3 kg/m3
same,mass density,"383.24 K, 39986 kPa",566.81 ± 1.4 kg/m3
same,vapor or sublimation pressure,386.99 K,2310.4 ± 7.8 kPa
same,mass density,"388.24 K, 2883 kPa",445.15 ± 0.94 kg/m3
same,mass density,"388.24 K, 4993 kPa",463.82 ± 0.98 kg/m3
same,mass density,"388.24 K, 9989 kPa",491.12 ± 1.1 kg/m3
same,mass density,"388.24 K, 14987 kPa",509.52 ± 1.1 kg/m3
same,mass density,"388.24 K, 20000 kPa",523.81 ± 1.2 kg/m3
same,mass density,"388.24 K, 24990 kPa",535.58 ± 1.2 kg/m3
same,mass density,"388.24 K, 29995 kPa",545.72 ± 1.3 kg/m3
